The results in this text go back to EP2388023A1, “Composites on a basis of bioceramics and biodegradable or non biodegradable polymers, containing antibiotics for tissue restitution and products therefrom” (Universidade Federal de Minas Gerais, priority 2006, dated 2007).

This series deals with dentine-pulp complex of rats. On the procedure:
The objective of this study was to check the inflammatory response of the pulp tissue and dentine tissue formation in rats after the use of composites made from hydroxiapatite as compared to the use of […] (CETEA 143/04). The composites were prepared and sterilized with ethylene oxide, following the procedures described previously. 36 six-week-old rats (Rattus norvergicus) of the Wistar lineage, weighing between 250 and 300g were used in this investigation.
The animals were placed in […] groups: (1) Calcium hydroxide; (2) Bioceramics HA and PLGA; (3) Negative control within four periods of time (1, 7. 15 and 30 days). The animals received an intraperitoneal anesthetic injection of 10 ml Ketamine 10% and 7.5 ml Xilazine 10% (body weight: 0.1ml/100g).
A cavity in the first upper molar oclussal face of the animals was made using a spherical drill n. 1/4 (ISO Maillefer), in total isolation, with water refrigeration and low rotation, keeping the animal in adequate equipment. No additional retention was supplied for the preparation of the cavity. Cavities and exposures were carefully cleaned with cotton balls and distilled water during four minutes. After being sacrificed, the animals underwent the histological processing of their teeth performed with the use of hematoxilin-eosin followed by a qualitative and quantitative histological analysis. The data was subjected to a ANOVA Test statistical analysis. The dentine bridge was measured with a 60-micrometer reticle.

Read-outs that look alike come from different tables or passages of the source.

As to `[Ca+2].[OH-].[OH-]` [group (1), Calcium hydroxide], the “inflammatory response of the pulp tissue” value reads like this: (after seven days) “necrosed areas and a mild acute inflammatory process”; (from the fourteenth day on) “mild chronic infiltrate”. In addition, under “onset, periods 1, 7, 15 and 30 days”, the “formation of hard tissue” value is given as “around the thirtieth day”.
